# Source: patent US20250304927A1, “PRO-PEPTIDE VARIANTS FOR MODULATING ACTIVITY OF TRANSGLUTAMINASES” (CURIE CO. INC., priority 2022, published 2025)
# Where no end group is shown, it is not given here.
# T1: evolved variant of mature Streptomyces mobaraensis transglutaminase, including a two amino acid linker and … (Streptomyces mobaraensis, UniProt P81453 79-407)
# T1 chain: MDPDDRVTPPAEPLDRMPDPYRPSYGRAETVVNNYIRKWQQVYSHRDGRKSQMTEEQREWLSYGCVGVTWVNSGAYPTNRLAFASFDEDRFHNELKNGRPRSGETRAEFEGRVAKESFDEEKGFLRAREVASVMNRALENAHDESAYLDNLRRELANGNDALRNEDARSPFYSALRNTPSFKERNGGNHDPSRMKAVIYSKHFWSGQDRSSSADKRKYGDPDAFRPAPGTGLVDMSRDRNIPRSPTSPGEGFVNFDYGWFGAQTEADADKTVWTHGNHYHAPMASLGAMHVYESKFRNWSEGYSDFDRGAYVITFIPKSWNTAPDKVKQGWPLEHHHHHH
# Biological target: T1, evolved variant of mature Streptomyces …
# Assay: cell-based or functional assay
# Conditions: not given
row,Molecule,Inhibition [fold]
1,"MSNGAGSETKSYAETYRLTADQVANINALNESAPAASSAGPSFRAP [pro-peptide variant D2S, E7S, D22Q (Method B)]",> 2
2,"MDNGAGEETKSYAETYRVTATDVANINALNESAPAASSAGPSFRAP [pro-peptide variant L18V, D21T (Method B)]",> 2
3,"MSNGAGSETKSYAETYRLTAIDVANINALNESAPAASSAGPSFRAP [pro-peptide variant D2S, E7S, D21I (Method B)]",> 1.2
4,"MDNGAGSETKSYAETYRLTARDVANINALNESAPAASSAGPSFRAP [pro-peptide variant E7S, D21R (Method B)]",> 1.2
5,"MDNGAGSETKSYAETYRVTAIDVANINALNESAPAASSAGPSFRAP [pro-peptide variant E7S, L18V, D21I (Method B)]",> 2
6,"MSNGAGSETKSYAETYRLTADDVANINALNESAPAASSAGPSFRAP [pro-peptide variant D2S, E7S (Method B)]",> 2
7,"MDNGAGSETKSYAETYRLTATDVANINALNESAPAASSAGPSFRAP [pro-peptide variant E7S, D21T (Method B)]",> 1.2
8,"MDNGAGSETKSYAETYRLTATQVANINALNESAPAASSAGPSFRAP [pro-peptide variant E7S, D21T, D22Q (Method B)]",> 1.2
9,"MINGAGSETKSYAETYRLTADQVANINALNESAPAASSAGPSFRAP [pro-peptide variant D2I, E7S, D22Q (Method B)]",> 2
10,"MINGAGEETKSYAETYRLTATQVANINALNESAPAASSAGPSFRAP [pro-peptide variant D2I, D21T, D22Q (Method B)]",> 1.2
11,MFNGAGEETKSYAETYRLTADDVANINALNESAPAASSAGPSFRAP [pro-peptide variant D2F (Method B)],> 1.2

# Biological target: T2, thermostable mature transglutaminase variant (SEQ ID NO: 3) (Streptomyces mobaraensis, UniProt P81453)
# T2 construct: made in house; host or cells: E. coli (lysate)
# T2 sequence (P81453 other isoform, or with tags, fused parts or gaps): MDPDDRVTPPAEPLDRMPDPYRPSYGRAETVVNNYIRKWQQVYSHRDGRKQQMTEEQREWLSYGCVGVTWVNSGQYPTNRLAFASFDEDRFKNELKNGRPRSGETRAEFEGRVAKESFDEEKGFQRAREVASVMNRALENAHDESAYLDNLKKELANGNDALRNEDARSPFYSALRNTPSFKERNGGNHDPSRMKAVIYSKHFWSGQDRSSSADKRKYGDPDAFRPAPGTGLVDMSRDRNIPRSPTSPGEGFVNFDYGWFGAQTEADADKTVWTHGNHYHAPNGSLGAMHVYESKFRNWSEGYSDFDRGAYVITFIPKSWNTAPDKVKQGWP
# Assay: not given
# Assay type: biochemical
# Conditions: increase in transglutaminase activity relative to wild-type pro-peptide, casein assay; Method A
# Source text: Method A. A bicistronic expression vector encoding the wild-type pro-domain of transglutaminase (SEQ ID NO: 2) and a thermostable mature transglutaminase variant (SEQ ID NO: 3) as separate polypeptides was cloned as described in PCT/US20/49226 (WO2021/178001 A1). The vector was used as a template for synthesis of a random mutagenesis library targeting the pro-domain coding sequence to create pro-domain peptide variants.
# Method A. Plasmid libraries containing mature transglutaminase and variant pro-domain peptides were plated on Luria-Bertani (LB) agar plates containing 50 μg/mL of kanamycin. After incubation for at least 16 hours at 37° C., colonies were picked and inoculated into 1 mL of LB broth with 50 μg/mL kanamycin in one well of a 96 deep well culture plate. The plate was covered with a breathable seal and incubated overnight at 37° C. with 400 rpm of shaking. 10 μL of the seed culture was used to inoculate 1 mL of media in a 96 deep well culture plate for expression. The expression plate was allowed to grow for 6-8 hours at 30° C. Expression was then induced by adding isopropyl beta-D-1-thiogalactopyranoside (IPTG) to a final concentration of 1 mM and the temperature was reduced to 20° C. while growth continued for an additional 15 hours. Cells were harvested by centrifugation at 4000 rcf for 30 minutes and pellets were frozen at −80° C.
# A secondary screen was performed to determine initial rate of transglutaminase in the presence of the pro-peptide variants using transglutaminase-catalyzed labeling of casein with dansylcadaverine (e.g., a commercially available kit such as the Transglutaminase Fluorogenic Activity Assay Kit, T036, Zedira, Germany). Transglutaminase activity was monitored by measuring the fluorescence (excitation wavelength 332 nm; emission wavelength 500 nm) using a BioTek Synergy H1 microplate reader. Transglutaminase-catalyzed covalent coupling (crosslinking) of monodansylcadaverine with N,N-dimethylcasein produces a product that causes a shift in intensity and wavelength of fluorescence of the dansyl group now linked to the casein. The relative transglutaminase activity is shown by increase of fluorescence intensity over time. The data were normalized for transglutaminase expression levels in E. coli lysate as described above. Pro-domain variants were identified based on their ability to alter the activity of the mature transglutaminase enzyme. […]
# It is believed that these pro-peptide variants have reduced binding affinity with mature mTgase.
row,Molecule,Reduction in binding affinity of inhibitory peptide relative to WT [fold]
1,MDNGAGEETKKYAETYRLTADDVANINALNESAPAASSAGPSFRAP [Variant S11K],>1.2
2,MDNGAGEETKSYAETYRLTADDVANINALNESAPAASPAGPSFRAP [Variant S38P],>1.2
3,MDNGAGEETKSVAETYRLTADDVANINALNESAPAASSAGPSFRAP [Variant Y12V],>1.2
4,MDNGAGEETGSYAETYRLTADDVANINALNESAPAASSAGPSFRAP [Variant K10G],>1.2
5,MDNGAGEETKSYADTYRLTADDVANINALNESAPAASSAGPSFRAP [Variant E14D],>1.2
6,MDNGAGEETKSYAATYRLTADDVANINALNESAPAASSAGPSFRAP [Variant E14A],>1.2
7,MDNGAGEETKSYARTYRLTADDVANINALNESAPAASSAGPSFRAP [Variant E14R],>1.2
8,MDNGAGEETKSYAETYR [ΔL18-P46],>1.2
9,MDNGAGGETKSYAETYRLTADDVANINALNESAPAASSAGPSFRAP [Variant E7G],>1.2
10,MDNGAGEETKSYAETYRLTAD [ΔD22-P46],>1.2
11,MDNGAGEETKSYAETYRLTADYVANINALNESAPAASSAGPSFRAP [Variant D22Y],>1.2
12,MDNGAGEEQKSYAETYRLTADDVANINALNESAPAASSAGPSFRAP [Variant T9Q],>1.2
13,MDNGAGEETCSYAETYRLTADDVANINALNESAPAASSAGPSFRAP [Variant K10C],>1.2
14,MDNGAGEETKSYAETYRKTADDVANINALNESAPAASSAGPSFRAP [Variant L18K],>1.2
15,MDNGAGEETKSYAETYRLTADQVANINALNESAPAASSAGPSFRAP [Variant D22Q],>1.2
16,MDNGAGEETKSYAETYRLTADDVANANALNESAPAASSAGPSFRAP [Variant I26A],>1.2
17,MDNGAGEETKSYAETYRLTADGVANINALNESAPAASSAGPSFRAP [Variant D22G],>1.2
18,MDNGAGEETKSNAETYRLTADDVANINALNESAPAASSAGPSFRAP [Variant Y12N],>1.2
19,MDNGAGEETRSYAETYRLTADDVANINALNESAPAASSAGPSFRAP [Variant K10R],>1.2

row,Molecule,Reduction in binding affinity of inhibitory peptide relative to WT [fold]
1,MDNGAGEETKSYAETYRLTADDVANINALNESAPAASDAGPSFRAP [Variant S38D],>1.2
2,MDNGAGEETKSYAETYRWTADDVANINALNESAPAASSAGPSFRAP [Variant L18W],>1.2
3,MDNGAGEETKSLAETYRLTADDVANINALNESAPAASSAGPSFRAP [Variant Y12L],>1.2
4,MDNGAGEETKSYAVTYRLTADDVANINALNESAPAASSAGPSFRAP [Variant E14V],>1.2
5,MDNGAGEETKSYACTYRLTADDVANINALNESAPAASSAGPSFRAP [Variant E14C],>1.2
6,MDNGAGEYTKSYAETYRLTADDVANINALNESAPAASSAGPSFRAP [Variant E8Y],>1.2
7,MDNGAGEETKS [ΔY12-P46],>1.2
8,MDNGAGEETKSYAETYRLTADDVANYNALNESAPAASSAGPSFRAP [Variant I26Y],>1.2
9,MDNGAGEETDSYAETYRLTADDVANINALNESAPAASSAGPSFRAP [Variant K10D],>1.2
10,MDNGAGEETKSYAETYRLTADRVANINALNESAPAASSAGPSFRAP [Variant D22R],>1.2
11,MDNGAGEETKSYAETYRSTADDVANINALNESAPAASSAGPSFRAP [Variant L18S],>1.2
12,MDNGAGEETKGYAETYRLTADDVANINALNESAPAASSAGPSFRAP [Variant S11G],>5
13,MDNGAGEETKSYAETYRETADDVANINALNESAPAASSAGPSFRAP [Variant L18E],>1.2
14,MDNGAGEETKSGAETYRLTADDVANINALNESAPAASSAGPSFRAP [Variant Y12G],>1.2
15,MDNGAGEETKSYATTYRLTADDVANINALNESAPAASSAGPSFRAP [Variant E14T],>1.2
16,MDNGAGEETKLYAETYRLTADDVANINALNESAPAASSAGPSFRAP [Variant S11L],>1.2
17,MDNGAGEETKSYANTYRLTADDVANINALNESAPAASSAGPSFRAP [Variant E14N],>1.2
18,MDNGAGEETKSYAETYRLTADDVANINALNESAPAASYAGPSFRAP [Variant S38Y],>1.2
19,MDNGAGEETKSYAETYRLTADDVAN [ΔI26-P46],>1.2
